Values quoted from earlier work in patent US10695309B2 (Western New England University, priority 2017, dated 2020).

Conditions: for half-life: in vivo

| half-life | bioavailability (reported) | SMILES |
| --- | --- | --- |
| less than 2 days | 69-99% | N[C@@H](Cc1cc(I)c(Oc2ccc(O)c(I)c2)c(I)c1)C(=O)O [Formulation T3, Liothyronine] |
| 140 to 170 h | – | N[C@@H](Cc1cc(I)c(Oc2cc(I)c(O)c(I)c2)c(I)c1)C(=O)O [Formulation T4, levothyroxine] |
